US20240424175A1, “ANTICOAGULANT COMPOUNDS COMPRISING CHELATING AGENTS AND CATIONIC ANTI-COAGULATION ENHANCERS AND METHODS AND DEVICES FOR THEIR USE” (Elixir Medical Corporation, priority 2021, published 2024)

Experiments:
citrated sheep blood [1] = test: Activated clotting time (ACT) in calcium-reconstituted citrated sheep blood, Hemochron Response (Example 2); assay type: biochemical; conditions: individual drug at 0.6 ng/mg; FIG. 2C
Experimental: The activated clotting time (ACT) evaluation of anticoagulants was performed in calcium-reconstituted sheep blood and recorded employing the Hemochron® Response device. […] A target amount of drug solution was then added into the test tube. […] The tube was gently shaken before being inserted into the Hemochron Response detector. The ACT read out was recorded and reported. The ACT of the control blood in the absence of any drug as first determined to establish a baseline. Then ACT was determined in the presence of different concentrations of the drug as a single component. Selected drug combinations were then tested to evaluate for potential synergy in action between the two drugs.

[2] = test system: Human Aortic SMC (HAoSMC, ATCC, PCS-100-012); test: HAoSMC cell proliferation assay (CellTiter Aqueous, 96-well); assay type: cell-based; conditions: drug alone, various concentrations; 72 hours; FIGS. 1D-1E
Experimental: Cell proliferation assay was done in 96-well format. Low passage cells were trypsinized and seeded in 96 well plates at a density of ˜4000 cells/well. The cells are allowed to attach overnight in a CO2 incubator. Next day, the medium was removed and replaced with fresh complete medium containing various concentrations of the test compounds. The final concentration of vehicle (DMSO) in the test medium was 0.1%. After adding test compounds, the cells were incubated for 72 hours. Following this period, the medium was removed and then added fresh medium (100 μl) containing CellTiter Aqueous (1× concentration final) to the wells and incubated for 2 hours in the CO2 incubator. At the end of incubation measured fluorescence with a plate-reader. Controlled incubations with untreated cells and blank incubations containing only medium were included and tested similarly. Based on the cell viability assay the percentage inhibition of the cell proliferation was determined at the different concentrations of the drug tested.
Following the cell proliferation assay as indicated earlier, the percent cell proliferation inhibition was determined, and the assay results plotted to determine the IC50.

[3] = test system: Tissue factor generated antiplatelet; conditions: cited from earlier work; for IC50 for Tissue factor generated antiplatelet: expressed in ng/mg
[4] = In vivo drug release, drug remaining on stent and tissue drug concentration of SS7-SS17 stents (Tables 12A-12D); conditions: 28 D following implantation
Text: The stented artery was cut longitudinally with surgical scissors. The stents were separated from the tissue.

[5] = test system: porcine coronary artery model; test: Fibrin score, histopathology of stented arteries in porcine coronary artery model (Examples 16, 17); assay type: in vivo; conditions: 14 mm stents, n = 3; score 0 to 3, smaller is better; bare metal control stent 1.02 ± 0.35
Experimental: The drug eluting stent systems containing different anticoagulants prepared as described in Example 11 were evaluated at 3 hours, 6 hours, 1 day, 3 days, 6 days, 7 days, or 28 days following implantation in a porcine coronary artery model.
After induction of anesthesia, the left or right femoral artery was accessed using standard techniques and an arterial sheath was introduced and advanced into the artery. Vessel angiography was performed under fluoroscopic guidance, a 7 Fr, guide catheter was inserted through the sheath and advanced to the appropriate location where intracoronary nitroglycerin was administered. An appropriate implantation segment of coronary artery was randomly selected and a 0.014″ guidewire inserted. Quantitative Coronary Angiography (QCA) was performed to document the results. The appropriately size stent was advanced to the deployment site. The balloon was inflated at a steady rate to a pressure sufficient to achieve a balloon to artery ratio of approximately 1.1 to 1.0.
Stented portions of coronary arteries were embedded in methyl methacrylate (MMA), then divided into a target of at least three blocks of approximately similar lengths for histology evaluation. Quantitative histopathological evaluation of stented artery sections was then performed and scored as indicated. For Fibrin formation, scores ranged from 0 to 3, with a score of 0 indicating absent or rare minimal spotting around struts of the stent, a score of 1 indicating the presence of fibrin in small amounts localized only around the struts, a score of 2 indicating the moderately abundant or denser presence of fibrin around and extending beyond the struts, and a score of 3 indicating the presence of abundant and dense fibrin and/or bridging of the fibrin between the struts. The mean score was calculated and reported. The mean of each section was then averaged to provide a mean fibrin score per stent. The smaller the fibrin score, the better efficacy.

[6] = test system: porcine coronary artery model; test: Late lumen loss (LLL) by follow up angiography in porcine coronary artery model (Example 16); assay type: in vivo; conditions: 14 mm stents, n = 3; smaller is better; bare metal control stent 0.17 ± 0.22
citrated sheep blood [7] = test: Activated clotting time (ACT) of EDTA or other anti-coagulant compounds in citrated sheep blood (Example 4); assay type: biochemical
Experimental: The activated clotting time (ACT) evaluation of anticoagulants was performed in Calcium-reconstituted sheep blood and recorded employing the Hemochron® Response device. […] A target amount of EDTA or other anti-coagulant compounds solution was then added into the test tube. […] The tube was gently shaken before being inserted into the Hemochron Response detector. The ACT read out was recorded and reported.

fresh pig blood = test: Activated clotting time (ACT) of EDTA or analogues in fresh pig blood (Example 3); assay type: biochemical; conditions: for Clotting time: blood control 154
Experimental: The ACT measurements were made in fresh pig blood. 1.0 ml of fresh pig blood was added to a test tube containing an activator (Hemochron@Celite@ ACT tubes, Lot F8FTE026 from Accriva Diagnostics, Inc.). A target amount of drug solution was then added into the test tube. The test tube was gently swirled so that the blood and drug was well-mixed. 0.1 ml of 0.3M calcium chloride was then added. The tube was gently shaken before being inserted into the Hemochron Response detector. The ACT read out was recorded and reported. The ACT of the control blood in the absence of any drug as first determined to establish a baseline.

[8] = pH of 1 mg/ml EDTA or analogue in water or phosphate buffer; assay type: physicochemical
[9] = final concentration 67 ng/mg (66.7 μg/ml)
[10] = final concentration 100 ng/mg (100 μg/ml)
[11] = final concentration […] (133.3 μg/ml)
[12] = final concentration […] (166.7 μg/ml)
[13] = final drug concentration 200 ng/mg
[14] = 1 mg/ml in 0.01M pH 7.4 phosphate buffer, 21.8-22.3 °C
[15] = final drug concentration 500 ng/mg
[16] = final drug concentration 75 ng/mg
[17] = final drug concentration 100 ng/mg
[18] = final drug concentration 150 ng/mg
[19] = final drug concentration 300 ng/mg
[20] = final drug concentration 250 ng/mg

With `COc1ccc(-n2nc(C(N)=O)c3c2C(=O)N(c2ccc(N4CCCCC4=O)cc2)CC3)cc1` [Apixaban] the ACT (citrated sheep blood [1]) was 522 and the “inhibition of HAoSMC proliferation” value [2] was “small to no inhibition”.
In the case of `CC1CNc2c(cccc2S(=O)(=O)N[C@@H](CCCNC(=N)N)C(=O)N2CC[C@@H](C)C[C@@H]2C(=O)O)C1` (stereo partly shown) [Argatroban], the ACT (citrated sheep blood [1]) is listed as 301, the IC50 [3] is listed as 79 nM and the “IC50 for Tissue factor generated antiplatelet” value [3] is listed as 0.04 ng/mg. For the same compound, the “Tissue drug concentration (ng/mg) in the stented segment tissue, Argatroban” value [4] was “about 1.69 ng/mg”, the “inhibition of HAoSMC proliferation” value [2] was “small to no inhibition” and the “Fibrin score at day 7” value [5] was “not effective at inhibiting fibrin formation”. The “LLL at day 7” value [6] was “not effective at inhibiting smooth muscle cell proliferation”.
In the case of `CCCCCCCCCCCCCC[N+](C)(C)Cc1ccccc1.[Cl-]` [Benzyldimethyltetradecylammonium chloride], the “Clotting time” value (citrated sheep blood [7]; [9]) is reported as 316 s, the “Increase in clotting time compared to control” value (shortened to “Increase in clotting time”) (citrated sheep blood [7]; [9]) is reported as 114 s and the “Clotting time” value (citrated sheep blood [7]; [10]) is reported as 421 s. For the same compound, the “Increase in clotting time” value (citrated sheep blood [7]; [10]) was 219 s, the “Clotting time” value (citrated sheep blood [7]; [11]) was 983 s and the “Increase in clotting time” value (citrated sheep blood [7]; [11]) was 781 s. For the same compound, the “Clotting time” value (citrated sheep blood [7]; [12]) was 1370 s and the “Increase in clotting time” value (citrated sheep blood [7]; [12]) was 1168 s.
In the case of `O=C(O)C(S)C(S)C(=O)O` (stereo not shown) [Dimercaptosuccinic acid(DMSA), dimercaptosuccinic acid], the “Increase in clotting time” value (fresh pig blood; [13]) is reported as -3 s and the “Clotting time” value (fresh pig blood; [13]) is reported as 151 s.
`O=C([O-])CN(CCN(CC(=O)O)CC(=O)O)CC(=O)[O-].[K+].[K+]` [EDTA dipotasium] gave a pH [8, 14] of 6.93 and a pH ([8]; 1 mg/ml in d-water, 21.8-22 °C) of 6.25.
For `CC(=O)OCOC(=O)CN(CCN(CC(=O)OCOC(C)=O)CC(=O)OCOC(C)=O)CC(=O)OCOC(C)=O` [EDTA tetra acetoxymethyl ester, tetra acetoxymethyl ester EDTA], the “Increase in clotting time” value (fresh pig blood; [15]) was 4 s and the “Clotting time” value (fresh pig blood; [15]) was 158 s.
With `O=C([O-])CN(CCN(CC(=O)[O-])CC(=O)O)CC(=O)[O-].[Na+].[Na+].[Na+]` [EDTA tri sodium, trisodium edetate] the pH [8, 14] was 7.77 and the pH ([8]; 1 mg/ml in d-water, 21.8-22 °C) was 9.21.
For `O=C(O)CN(CCN(CC(=O)O)CC(=O)O)CC(=O)O` [EDTA, ethylenediaminetetraacetic acid], the “Increase in clotting time” value (fresh pig blood; [16]) was 25 s, the “Clotting time” value (fresh pig blood; [16]) was 179 s and the “Increase in clotting time” value (fresh pig blood; [17]) was 93 s. For the same compound, the “Clotting time” value (fresh pig blood; [17]) was 247 s, the “Increase in clotting time” value (fresh pig blood; [18]) was 121 s and the “Clotting time” value (fresh pig blood; [18]) was 275 s. The “Increase in clotting time” value (fresh pig blood; [13]) was greater than 346 s.
For `O=C([O-])CN(CCN(CC(=O)[O-])CC(=O)O)CC(=O)O.[Na+].[Na+]` [EDTA•2Na•2H2O, disodium edetate], the pH [8, 14] was 6.92, the pH ([8]; 1 mg/ml in d-water, 21.8-22 °C) was 6.42 and the “Increase in clotting time” value (fresh pig blood; [17]) was 37 s. The “Clotting time” value (fresh pig blood; [17]) was 191 s, the “Increase in clotting time” value (fresh pig blood; [13]) was 110 s and the “Clotting time” value (fresh pig blood; [13]) was 264 s. The “Increase in clotting time” value (fresh pig blood; [19]) was 220 s, the “Clotting time” value (fresh pig blood; [19]) was 374 s and the “Clotting time (sec)” value (fresh pig blood; final drug concentration 300 ng/mg, blood control 154, listed as EDTA disodium salt) was “same trend”.
For `O=C([O-])CN(CCN(CC(=O)[O-])CC(=O)[O-])CC(=O)[O-].[Na+].[Na+].[Na+].[Na+]` [EDTA•4Na•xH2O, tetrasodium edetate], the pH [8, 14] was 8.27, the pH ([8]; 1 mg/ml in d-water, 21.8-22 °C) was 9.61 and the “Increase in clotting time” value (fresh pig blood; [17]) was 50 s. For the same compound, the “Clotting time” value (fresh pig blood; [17]) was 204 s, the “Increase in clotting time” value (fresh pig blood; [13]) was 121 s and the “Clotting time” value (fresh pig blood; [13]) was 275 s. For the same compound, the “Increase in clotting time” value (fresh pig blood; [20]) was 175 s, the “Clotting time” value (fresh pig blood; [20]) was 329 s and the “Increase in clotting time” value (fresh pig blood; [19]) was greater than 346 s. The “Clotting time” value (fresh pig blood; [19]) was greater than 500 s and the “Clotting time (sec)” value (fresh pig blood; final drug concentration 300 ng/mg, blood control 154, listed as EDTA tetra sodium salt) was “same trend”.
In the case of `O=C(NC[C@H]1CN(c2ccc(N3CCOCC3=O)cc2)C(=O)O1)c1ccc(Cl)s1` [Rivaroxaban], the IC50 [3] is given as 312 nM, the “IC50 for Tissue factor generated antiplatelet” value [3] is given as 0.136 ng/mg and the “Fibrin score at day 7” value [5] is given as “effective at inhibiting fibrin formation”. For the same compound, the “LLL at day 7” value [6] was “not effective at inhibiting smooth muscle cell proliferation”.
With Dalteparin the “Fibrin score at day 7” value [5] was “not effective at inhibiting fibrin formation” and the “LLL at day 7” value [6] was “not effective at inhibiting smooth muscle cell proliferation”.
